The nature of the data set: Assessment of solubility (McIlvaine buffers, 24 h shake, UPLC-UV). The data set is classed as physicochemical. Particulars: kinetic from dmso stock. Summed up: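 Compounds from 10 mM DMSO stocks were shaken for 24 h at room temperature in McIlvaine buffers at pH 2.2, 4.5 and 6.8 (2.5% v/v DMSO final), then filtered. Filtrates were quantified by UPLC-UV at 254 nm against a 50:50 acetonitrile/water reference assumed fully dissolved, as a single determination.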

The values below come from patent US8906904B2, “Alkoxy pyrazoles as soluble guanylate cyclase activators” (Boehringer Ingelheim International GmbH, priority 2012, dated 2014).

≈ marks a conversion by molar mass, not a printed value.

For orientation: solubility means the concentration that dissolves in the medium under given conditions. On to `Cc1cccc(-c2cccc(-n3ncc(C(=O)O)c3OC(C)C)n2)c1OCc1ccc2c(c1)CCN(C1CCOCC1)C2` [Compound 1, 5-isopropoxy-1-(6-{3-methyl-2-[2-(tetrahydro-pyran-4-yl)-1,2,3,4-tetrahydro-isoquinolin-6-ylmethoxy]-phenyl}-pyridin-2-yl)-1H-pyrazole-4-carboxylic acid], for which the concentration in solution (pH 2.2, aqueous buffer) (solubility at 24 h) came to 95 µg/mL (≈ 163 µM); the concentration in solution (pH 4.5, aqueous buffer) (solubility at 24 h) came to 80 µg/mL (≈ 137 µM); the solubility at 24 h (pH 6.8, aqueous buffer) was determined as 87 µg/mL (≈ 149 µM).

Regarding `Cc1cccc(-c2cccc(-n3ncc(C(=O)O)c3OC(C)C)n2)c1OCc1ccc2c(c1)CCN(C1CCC(F)(F)CC1)C2` [Compound 2], the solubility at 24 h is, setting by setting: (pH 2.2, aqueous buffer) 110 µg/mL (≈ 178 µM); (pH 4.5, aqueous buffer) 83 µg/mL (≈ 135 µM); (pH 6.8, aqueous buffer) 88 µg/mL (≈ 143 µM).

As for `COc1c(C(=O)O)cnn1-c1cccc(-c2cccc(C)c2OCc2ccc3c(c2)CCN(C2CCOCC2)C3)n1` [Compound 3], the solubility at 24 h was found to be 96 µg/mL (≈ 173 µM) (pH 2.2, aqueous buffer); 79 µg/mL (≈ 142 µM) (pH 4.5, aqueous buffer); 81 µg/mL (≈ 146 µM) (pH 6.8, aqueous buffer).

As for `Cc1cccc(-c2cccc(-n3ncc(C(=O)O)c3OC(C)C)n2)c1OCc1ccc2c(c1)CCN(CC1CC(F)(F)C1)C2` [Compound 4, 1-(6-{2-[2-(3,3-difluoro-cyclobutylmethyl)-1,2,3,4-tetrahydro-isoquinolin-6-ylmethoxy]-3-methyl-phenyl}-pyridin-2-yl)-5-isopropoxy-1H-pyrazole-4-carboxylic acid], the solubility at 24 h runs as follows: (pH 2.2, aqueous buffer) 100 µg/mL (≈ 166 µM); (pH 4.5, aqueous buffer) 81 µg/mL (≈ 134 µM); (pH 6.8, aqueous buffer) 83 µg/mL (≈ 138 µM).

`COc1c(C(=O)O)cnn1-c1cccc(-c2cccc(C)c2OCc2ccc3c(c2)CCN(C2CCC(F)(F)CC2)C3)n1` [Compound 5]: the solubility at 24 h runs as follows: (pH 2.2, aqueous buffer) 98 µg/mL (≈ 166 µM); (pH 4.5, aqueous buffer) 76 µg/mL (≈ 129 µM); (pH 6.8, aqueous buffer) 72 µg/mL (≈ 122 µM).

Turning to `CCOc1c(C(=O)O)cnn1-c1cccc(-c2cccc(C)c2OCc2ccc3c(c2)CCN(C2COC2)C3)n1` [Compound 6], the solubility at 24 h is, setting by setting: (pH 2.2, aqueous buffer) 90 µg/mL (≈ 166 µM); (pH 4.5, aqueous buffer) 64 µg/mL (≈ 118 µM); (pH 6.8, aqueous buffer) 81 µg/mL (≈ 150 µM).

In the case of `COc1c(C(=O)O)cnn1-c1cccc(-c2cccc(C)c2OCc2ccc3c(c2C)CCN(CC(C)(C)C)C3)n1` [Compound 30], the solubility at 24 h worked out at 100 µg/mL (≈ 180 µM) (pH 2.2, aqueous buffer); 81 µg/mL (≈ 146 µM) (pH 4.5, aqueous buffer); 75 µg/mL (≈ 135 µM) (pH 6.8, aqueous buffer).

`COc1c(C(=O)O)cnn1-c1cccc(-c2cccc(C)c2OCc2ccc3c(c2C)CCN(C2CCOC2)C3)n1` (stereo not drawn) [Compound 31]: the solubility at 24 h by setting is: (pH 2.2, aqueous buffer) 110 µg/mL (≈ 198 µM); (pH 4.5, aqueous buffer) 89 µg/mL (≈ 160 µM); (pH 6.8, aqueous buffer) 94 µg/mL (≈ 169 µM).

Regarding `CCOc1c(C(=O)O)cnn1-c1cccc(-c2cccc(C)c2OCc2ccc3c(c2)CCN(C(C)C)C3)n1` [Compound 32], the solubility at 24 h (pH 2.2, aqueous buffer) was 91 µg/mL (≈ 173 µM); the solubility at 24 h (pH 4.5, aqueous buffer) is 73 µg/mL (≈ 139 µM); the solubility at 24 h (pH 6.8, aqueous buffer) came to 78 µg/mL (≈ 148 µM).

Regarding `COc1c(C(=O)O)cnn1-c1cccc(-c2cccc(C)c2OCc2ccc3c(c2)CCN(CC(C)(C)O)C3)n1` [Compound 33, 1-(6-{2-[2-(2-hydroxy-2-methyl-propyl)-1,2,3,4-tetrahydro-isoquinolin-6-ylmethoxy]-3-methyl-phenyl}-pyridin-2-yl)-5-methoxy-1H-pyrazole-4-carboxylic acid], the solubility at 24 h was 93 µg/mL (≈ 171 µM) (pH 2.2, aqueous buffer); 73 µg/mL (≈ 135 µM) (pH 4.5, aqueous buffer); 75 µg/mL (≈ 138 µM) (pH 6.8, aqueous buffer).

Turning to `CCOc1c(C(=O)O)cnn1-c1cccc(-c2cccc(C)c2OCc2ccc3c(c2)CCN(CC2(C)COC2)C3)n1` [Compound 34], the solubility at 24 h was determined as 82 µg/mL (≈ 144 µM) (pH 2.2, aqueous buffer); 65 µg/mL (≈ 114 µM) (pH 4.5, aqueous buffer); 68 µg/mL (≈ 120 µM) (pH 6.8, aqueous buffer).

On to `CCOc1c(C(=O)O)cnn1-c1cccc(-c2cccc(C)c2OCc2ccc3c(c2)CCN(C2CCOC2)C3)n1` (stereo not drawn) [Compound 35], for which the solubility at 24 h stood at 93 µg/mL (≈ 168 µM) (pH 2.2, aqueous buffer); 73 µg/mL (≈ 132 µM) (pH 4.5, aqueous buffer); 78 µg/mL (≈ 141 µM) (pH 6.8, aqueous buffer).

For the compound `CCOc1c(C(=O)O)cnn1-c1cccc(-c2cccc(C)c2OCc2ccc3c(c2)CCN(C2CCCOC2)C3)n1` (stereo not drawn) [Compound 36], the concentration in solution (pH 2.2, aqueous buffer) (solubility at 24 h) came to 91 µg/mL (≈ 160 µM); the concentration in solution (pH 4.5, aqueous buffer) (solubility at 24 h) came to 72 µg/mL (≈ 127 µM); the solubility at 24 h (pH 6.8, aqueous buffer) was found to be 74 µg/mL (≈ 130 µM).

For `Cc1cccc(-c2cccc(-n3ncc(C(=O)O)c3OC(C)C)n2)c1OCc1ccc2c(c1)CCN(C(C)C)C2` [Compound 37], the solubility at 24 h runs as follows: (pH 2.2, aqueous buffer) 92 µg/mL (≈ 170 µM); (pH 4.5, aqueous buffer) 74 µg/mL (≈ 137 µM); (pH 6.8, aqueous buffer) 78 µg/mL (≈ 144 µM).

Regarding `COCC(C)N1CCc2cc(COc3c(C)cccc3-c3cccc(-n4ncc(C(=O)O)c4OC(C)C)n3)ccc2C1` (stereo not drawn) [Compound 38], the solubility at 24 h runs as follows: (pH 2.2, aqueous buffer) 110 µg/mL (≈ 193 µM); (pH 4.5, aqueous buffer) 94 µg/mL (≈ 165 µM); (pH 6.8, aqueous buffer) 88 µg/mL (≈ 154 µM).

Take `Cc1cccc(-c2cccc(-n3ncc(C(=O)O)c3OC(C)C)n2)c1OCc1ccc2c(c1)CCN(C1COC1)C2` [Compound 39]: the solubility at 24 h by setting is: (pH 2.2, aqueous buffer) 93 µg/mL (≈ 168 µM); (pH 4.5, aqueous buffer) 44 µg/mL (≈ 79.3 µM); (pH 6.8, aqueous buffer) 81 µg/mL (≈ 146 µM).

As for `Cc1cccc(-c2cccc(-n3ncc(C(=O)O)c3OC(C)C)n2)c1OCc1ccc2c(c1)CCN(CC1(C)COC1)C2` [Compound 40], the solubility at 24 h by setting is: (pH 2.2, aqueous buffer) 99 µg/mL (≈ 170 µM); (pH 4.5, aqueous buffer) 81 µg/mL (≈ 139 µM); (pH 6.8, aqueous buffer) 85 µg/mL (≈ 146 µM).

On to `Cc1cccc(-c2cccc(-n3ncc(C(=O)O)c3OC(C)C)n2)c1OCc1ccc2c(c1)CCN(C1CCOC1)C2` (stereo not drawn) [Compound 41], for which the solubility at 24 h is, setting by setting: (pH 2.2, aqueous buffer) 96 µg/mL (≈ 169 µM); (pH 4.5, aqueous buffer) 75 µg/mL (≈ 132 µM); (pH 6.8, aqueous buffer) 80 µg/mL (≈ 141 µM).

Regarding `Cc1cccc(-c2cccc(-n3ncc(C(=O)O)c3OC(C)C)n2)c1OCc1ccc2c(c1)CCN(C1CCCOC1)C2` (stereo not drawn) [Compound 42], the solubility at 24 h turned out to be 93 µg/mL (≈ 160 µM) (pH 2.2, aqueous buffer); 75 µg/mL (≈ 129 µM) (pH 4.5, aqueous buffer); 78 µg/mL (≈ 134 µM) (pH 6.8, aqueous buffer).

Consider `Cc1cccc(-c2cccc(-n3ncc(C(=O)O)c3OC(C)C)n2)c1OCc1ccc2c(c1C)CCN(C(C)C)C2` [Compound 43], for which the solubility at 24 h was determined as 95 µg/mL (≈ 171 µM) (pH 2.2, aqueous buffer); 79 µg/mL (≈ 142 µM) (pH 4.5, aqueous buffer); 82 µg/mL (≈ 148 µM) (pH 6.8, aqueous buffer).

For the compound `COCC(C)N1CCc2c(ccc(COc3c(C)cccc3-c3cccc(-n4ncc(C(=O)O)c4OC(C)C)n3)c2C)C1` (stereo not drawn) [Compound 44], the solubility at 24 h was 100 µg/mL (≈ 171 µM) (pH 2.2, aqueous buffer); 85 µg/mL (≈ 145 µM) (pH 4.5, aqueous buffer); 88 µg/mL (≈ 151 µM) (pH 6.8, aqueous buffer).

With `Cc1cccc(-c2cccc(-n3ncc(C(=O)O)c3OC(C)C)n2)c1OCc1ccc2c(c1C)CCN(C1COC1)C2` [Compound 45], the solubility at 24 h runs as follows: (pH 2.2, aqueous buffer) 82 µg/mL (≈ 144 µM); (pH 4.5, aqueous buffer) 61 µg/mL (≈ 107 µM); (pH 6.8, aqueous buffer) 73 µg/mL (≈ 128 µM).

As for `Cc1cccc(-c2cccc(-n3ncc(C(=O)O)c3OC(C)C)n2)c1OCc1ccc2c(c1C)CCN(CC1(C)COC1)C2` [Compound 46], the solubility at 24 h runs as follows: (pH 2.2, aqueous buffer) 100 µg/mL (≈ 168 µM); (pH 4.5, aqueous buffer) 82 µg/mL (≈ 137 µM); (pH 6.8, aqueous buffer) 86 µg/mL (≈ 144 µM).

Consider `CCOc1c(C(=O)O)cnn1-c1cccc(-c2cccc(C)c2OCc2ccc3c(c2)CCN(C(C)CF)C3)n1` (stereo not drawn) [Compound 49, 5-ethoxy-1-(6-{2-[2-(2-fluoro-1-methyl-ethyl)-1,2,3,4-tetrahydro-isoquinolin-6-ylmethoxy]-3-methyl-phenyl}-pyridin-2-yl)-1H-pyrazole-4-carboxylic acid], for which the solubility at 24 h reads like this: (pH 2.2, aqueous buffer) 92 µg/mL (≈ 169 µM); (pH 4.5, aqueous buffer) 69 µg/mL (≈ 127 µM); (pH 6.8, aqueous buffer) 58 µg/mL (≈ 106 µM).

With `CCOc1c(C(=O)O)cnn1-c1cccc(-c2cccc(Cl)c2OCc2ccc3c(c2)CCNC3)n1` [Compound 50], the solubility at 24 h reads like this: (pH 2.2, aqueous buffer) 120 µg/mL (≈ 238 µM); (pH 4.5, aqueous buffer) 79 µg/mL (≈ 156 µM); (pH 6.8, aqueous buffer) 75 µg/mL (≈ 149 µM).
